# Like-named read-outs stand apart in the source and are kept apart here. Marks after values point to notes of the source that are not given here.
# B1: NmSiaDW: recombinant C-terminal His-tagged N. meningitidis serogroup W capsular polysaccharide synthase, SEQ ID NO:2 (protein)
# chain: MAVIIFVNGIRAVNGLVKSSINTANAFAEEGLDVHLINFVGNITGAEHLYPPFHLHPNVKTSSIIDLFNDIPENVSCRNTPFYSIHQQFFKAEYSAHYKHVLMKIESLLSAEDSIIFTHPLQLEMYRLANNDIKSKAKLIVQIHGNYMEEIHNYEILARNIDYVDYLQTVSDEMLEEMHSHFKIKKDKLVFIPNITYPISLEKKEADFFIKDNEDIDNAQKFKRISIVGSIQPRKNQLDAIKIINKIKNENYILQIYGKSINKDYFELIKKYIKDNKLQNRILFKGESSEQEIYENTDILIMTSESEGFPYIFMEGMVYDIPIVVYDFKYGANDYSNYNENGCVFKTGDISGMAKKIIELLNNPEKYKELVQYNHNRFLKEYAKDVVMAKYFTILPRSFNNVSLSSAFSRKELDEFQNITFSIEDSNDLAHIWNFELTNPAQNMNFFALVGKRKFPMDAHIQGTQCTIKIAHKKTGNLLSLLLKKRNQLNLSRGYTLIAEDNSYEKYIGAISNKGNFEIIANKKSSLVTINKSTLELHEIPHELHQNKLLIALPNMQTPLKITDDNLIPIQASIKLEKIGNTYYPCFLPSGIFNNICLDYGEESKIINFSKYSYKYIYDSIRHIEQHTDISDIIVCNVYSWELIRASVIESLMEFTGKWEKHFQTSPKIDYRFDHEGKRSMDDVFSEETFIMEFPRKNGIDKKTAAFQNIPNSIVMEYPQTNGYSMRSHSLKSNVVAAKHFLEKLNKIKVDIKFKKHDLANIKKMNRIIYEHLGININIEAFLKPRLEKFKREEKYFHDFFKRNNFKEVIFPSTYWNPGIICAAHKQGIKVSDIQYAAITPYHPAYFKSPKSHYVADKLFLWSEYWNHELLPNPTREIGSGAAYWYALDDVRFSEKLNYDYIFLSQSRISSRLLSFAIEFALKNPQLQLLFSKHPDENIDLKNRIIPDNLIISTESSIQGINESRVAVGVYSTSLFEALACGKQTFVVKYPGYEIMSNEIDSGLFFAVETPEEMLEKTSPNWVAVADIENQFFGQEK
# Columns and labels:
# [1] = biological target: NmSiaDW α2-6-sialyltransferase activity (Neisseria meningitidis, UniProt O33390); experiment: Enzyme kinetics by varying CMP-Neu5Ac concentrations, fixed acceptor G2 or G10; type: biochemical; details: apparent, fixed acceptor 1 mM (row names the acceptor)
# Method: Enzyme kinetics by varying donor concentrations. For varying UDP-Gal concentrations, reactions were performed in duplicate at 30° C. for 10 minutes in the presence of MES buffer (100 mM, pH 6.5), MgCl2 (10 mM), S3 or S9 (2 mM), UDP-Gal (0.1, 0.2, 0.5, 1.0, 2.0, 5.0 and 10.0 mM), and NmSiaDW (0.025 μM for S3, 0.031 μM for S9) in a total volume of 20 μL. For varying CMP-Neu5Ac concentrations, reactions were performed in duplicate at 30° C. for 10 minutes in the presence of Tris-HCl buffer (100 mM, pH 8.0), MgCl2 (10 mM), G2 or G10 (1 mM), CMP-Neu5Ac (0.2, 0.5, 1.0, 2.0, 5.0 and 10.0 mM), and NmSiaDW (0.025 μM for G2, 0.062 μM for G10) in a total volume of 20 μL. Data analyses were carried out as described above.
# NmSiaDW kinetics studies where the concentrations of the donors were also conducted, using a fixed concentration of a representative short or long acceptor substrate. S3 or S9 was used as the acceptor substrate for varying the concentration of UDP-Gal and G2 or G10 was used as the acceptor substrate for varying the concentration of CMP-Neu5Ac. […] The averages of nonlinear regression standard errors from technical duplicates are shown.
# [2] = biological target: NmSiaDW sialyltransferase activity (Neisseria meningitidis, UniProt O33390); details: apparent; varying acceptor, 10 mM CMP-Neu5Ac, pH 8.0, 30° C.
# [3] = system: α2-6-sialyltransferase activity of NmSiaDW; type: biochemical, Neisseria meningitidis
# [4] = system: α2-6-sialyltransferase activity of NmSiaDW; type: biochemical, Neisseria meningitidis; remark: listed apart in the source
# NmCSS and PmAldolase = type: biochemical, Neisseria meningitidis; Pasteurella multocida
# [5] = biological target: NmSiaDW α1-4-galactosyltransferase activity (Neisseria meningitidis, UniProt O33390); type: biochemical; details: apparent; varying UDP-Gal, fixed acceptor 2 mM (row names the acceptor)
# [6] = biological target: NmSiaDW galactosyltransferase activity (Neisseria meningitidis, UniProt O33390); details: for increase of overall catalytic efficiency (kcat/KM) relative to monosaccharide S1: monosaccharide to nonasaccharide
# NmSiaDW [7] = experiment: Temperature profile of NmSiaDW activities; type: biochemical, Neisseria meningitidis
# Method: Assays were carried out in duplicate at different temperatures for 20 min in a total volume of 10 μL in a buffer (MES, 100 mM, pH 6.5 for GalT and Tris-HCl, 100 mM, pH 8.0 for SiaT assays) containing a donor substrate (1.2 mM) (UDP-Gal for GalT and CMP-Neu5Ac for SiaT assays), an acceptor substrate (1 mM) (S1 for GalT and G2 for SiaT assays), MgCl2 (10 mM), and NmSiaDW (19.8 μg for GalT and 0.17 μg for SiaT assays). Reactions were quenched by adding 10 μL of pre-chilled ethanol to the reaction mixture followed by incubation at −20° C. for 30 min. Products were assayed as described above for pH profile studies.
# NmSiaDW [8] = experiment: Thermostability of NmSiaDW (pre-heated 30 min, then activity assay at 30° C.); type: biochemical, Neisseria meningitidis
# Method: Enzyme was pre-heated at a given temperature for 30 min, then put on ice for 10 min. Reactions were performed at 30° C. and activity assays were then carried out as described above for the temperature profile assays.
# [9] = apparent, varying acceptor, 2 mM UDP-Gal, pH 6.5, 30° C.
# [10] = α1-4-galactosyltransferase activity
molecule,measurement,setting,value
"CC(=O)N[C@H]1[C@H]([C@H](O)[C@H](O)CO)O[C@@](OCCCNC(=O)OCc2ccccc2)(C(=O)O)C[C@@H]1O[C@H]1O[C@H](CO)[C@H](O)[C@H](O)[C@H]1O [G2, Galα1-4Neu5AcαProNHCbz]",kcat,[1],7.1 ± 0.2 s⁻¹
"CC(=O)N[C@H]1[C@H]([C@H](O)[C@H](O)CO)O[C@@](OC[C@H]2O[C@H](O[C@H]3C[C@](OC[C@H]4O[C@H](O[C@H]5C[C@](OC[C@H]6O[C@H](O[C@H]7C[C@](OC[C@H]8O[C@H](O[C@H]9C[C@](OCCCNC(=O)OCc%10ccccc%10)(C(=O)O)O[C@@H]([C@H](O)[C@H](O)CO)[C@@H]9NC(C)=O)[C@H](O)[C@@H](O)[C@H]8O)(C(=O)O)O[C@@H]([C@H](O)[C@H](O)CO)[C@@H]7NC(C)=O)[C@H](O)[C@@H](O)[C@H]6O)(C(=O)O)O[C@@H]([C@H](O)[C@H](O)CO)[C@@H]5NC(C)=O)[C@H](O)[C@@H](O)[C@H]4O)(C(=O)O)O[C@@H]([C@H](O)[C@H](O)CO)[C@@H]3NC(C)=O)[C@H](O)[C@@H](O)[C@H]2O)(C(=O)O)C[C@@H]1O[C@H]1O[C@H](CO)[C@H](O)[C@H](O)[C@H]1O [G10, Galα1(-4Neu5Acα2-6Galα1)4-4Neu5AcαProNHCbz]",kcat,[1],6.1 ± 0.2 s⁻¹
same,kcat,[2],7.03 ± 0.39 s⁻¹
CO[C@H]1O[C@H](CO)[C@H](O)[C@H](O)[C@H]1O [GalαOMe],Product,[3],Not Detected
OC[C@H]1O[C@@H](O[C@H]2[C@H](O)[C@@H](O)C(O)O[C@@H]2CO)[C@H](O)[C@@H](O)[C@H]1O (some centres unmarked) [Galβ1-4Glc],Product,[3],√
"[N-]=[N+]=N[C@H](C=O)[C@@H](O)[C@H](O)[C@H](O)CO [Man2N3, 2-azido-2-deoxy-mannose]",Percentage conversion (%) Transferase Reaction,[4],0%
same,Percentage conversion (%) CMP-Sialic acid,NmCSS and PmAldolase,77 ± 1 ^b %
"CC(=O)N[C@@H]1C(O)O[C@H](CN=[N+]=[N-])[C@@H](O)[C@@H]1O (some centres unmarked) [ManNAc6N3, 6-azido-6-deoxy-N-acetylmannosamine]",Percentage conversion (%) CMP-Sialic acid,NmCSS and PmAldolase,91 ± 10 ^b %
"CC(=O)NC[C@@H](O)[C@@H](O)[C@H](O)[C@@H](C=O)NC(C)=O [ManNAc6NAc, 6-N-acetyl-6-deoxy-N-acetylmannosamine]",Percentage conversion (%) Transferase Reaction,[4],0%
same,Percentage conversion (%) CMP-Sialic acid,NmCSS and PmAldolase,87 ± 2 ^b %
"[N-]=[N+]=NCC(=O)N[C@@H]1C(O)O[C@H](CO)[C@@H](O)[C@@H]1O (some centres unmarked) [ManNAz, N-azidoacetylmannosamine]",Percentage conversion (%) CMP-Sialic acid,NmCSS and PmAldolase,Quantitative ^b
"CC(=O)N[C@H]1[C@H]([C@H](O)[C@H](O)CO)O[C@@](OCCCNC(=O)OCc2ccccc2)(C(=O)O)C[C@@H]1O[C@H]1O[C@H](CO[C@]2(C(=O)O)C[C@H](O)[C@@H](NC(C)=O)[C@H]([C@H](O)[C@H](O)CO)O2)[C@H](O)[C@H](O)[C@H]1O [S3, Neu5Acα2-6Galα1-4Neu5AcαProNHCbz]",kcat,[5],6.3 ± 0.2 s⁻¹
"CC(=O)N[C@H]1[C@H]([C@H](O)[C@H](O)CO)O[C@@](OCCCNC(=O)OCc2ccccc2)(C(=O)O)C[C@@H]1O[C@H]1O[C@H](CO[C@]2(C(=O)O)C[C@H](O[C@H]3O[C@H](CO[C@]4(C(=O)O)C[C@H](O[C@H]5O[C@H](CO[C@]6(C(=O)O)C[C@H](O[C@H]7O[C@H](CO[C@]8(C(=O)O)C[C@H](O)[C@@H](NC(C)=O)[C@H]([C@H](O)[C@H](O)CO)O8)[C@H](O)[C@H](O)[C@H]7O)[C@@H](NC(C)=O)[C@H]([C@H](O)[C@H](O)CO)O6)[C@H](O)[C@H](O)[C@H]5O)[C@@H](NC(C)=O)[C@H]([C@H](O)[C@H](O)CO)O4)[C@H](O)[C@H](O)[C@H]3O)[C@@H](NC(C)=O)[C@H]([C@H](O)[C@H](O)CO)O2)[C@H](O)[C@H](O)[C@H]1O [S9, Neu5Acα2(-6Galα1-4Neu5Acα2)4-ProNHCbz]",Km,[6]; [9],< 50 µM
same,kcat,[6]; [9],5.1 ± 0.3 s⁻¹
same,acceptor concentration above which substrate inhibition was observed,"[6]; galactosyltransferase activity, 2 mM UDP-Gal",higher than 2 mM
same,increase of overall catalytic efficiency (kcat/KM) relative to monosaccharide S1,[6]; galactosyltransferase activity,more than 2100 fold
same,increase of overall catalytic efficiency (kcat/KM) relative to monosaccharide S1,"[6]; galactosyltransferase activity, listed as nonasaccharide",More than 2300 fold
same,kcat,[5],9.0 ± 0.2 s⁻¹
B1,optimal temperature,NmSiaDW [7]; sialyltransferase activity,30-37 °C
same,optimal temperature,NmSiaDW [7]; [10],20-33 °C
same,incubation temperature at which both glycosyltransferase activities were lost (30 minutes),NmSiaDW [8]; both activities,44 °C
same,temperature up to which activity is retained after 30 minutes incubation,NmSiaDW [8]; [10],up to 33 °C
same,incubation temperature above which activity decreased significantly (30 minutes),NmSiaDW [8]; α2-6-sialyltransferase activity,higher than 30 °C
